Reference: ChEMBL document CHEMBL1201862, “PubChem BioAssay data set” (2004)
Calls of active or inactive are those of the source.

What was measured:
Fatty acid synthase [1] = molecular target: T1, Fatty acid synthase (Homo sapiens, UniProt P49327); assay: FAS thioesterase domain inhibitors, dose response, biochemical, endpoint fluorescence intensity, uHTS hits (AID 624327); type: functional;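 also: fluorescence from hydrolysis of an O-methyl fluorescein acyl ester substrate by the enzyme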
Fatty acid synthase [2] = molecular target: T1, Fatty acid synthase; assay: FAS thioesterase domain inhibitors, dose response, biochemical, kinetic fluorescence intensity (AID 624326); type: functional;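 also: rate of fluorescence rise from hydrolysis of a fluorogenic O-methyl fluorescein ester substrate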
Cytochrome P450 2C9 = Cytochrome P450 2C9 (Homo sapiens, UniProt P11712)
[3] = Shn3 3'UTR reporter inhibitors, dose response, cell-based, Clone20 osteoblasts, firefly luciferase, cherry-picked (AID 624132); type: functional;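 also: firefly luciferase luminescence from reporter carrying the Shn3 3'UTR in osteoblasts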
[4] = control 3'UTR Renilla luciferase suppression, dose response, counter-screen for Shn3 inhibitor project, cell-based, Clone20-Shn3RL, cherry-picked (AID 624133); type: functional
[5] = inhibitors of intracellular T. cruzi replication, confirmation, NIH3T3 host cells, beta-gal luminescence (AID 2044); type: functional, cell-based;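 also: intracellular parasites grown in NIH/3T3 mouse fibroblasts as host cells; luminescent beta-galactosidase reporter signal from transgenic T. cruzi replicating inside host cells; inhibitors lower the luminescence signal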
[6] = cytotoxicity toward NIH3T3 fibroblasts, dose response, counter-screen, cell-based, ATP luminescence, mouse fibroblasts (AID 2010); type: functional;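 also: cells exposed to compound for about 90 hours before reading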
Vero = assay: cells; type: functional; details: Chlorocebus sabaeus
Cytochrome P450 2D6 = Cytochrome P450 2D6 (Homo sapiens, UniProt P10635);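 also: CYP2D6 member of a cytochrome P450 panel assay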
Large T antigen = Large T antigen (Simian virus 40, UniProt P03070); type: functional, Betapolyomavirus macacae;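 also: Confirmatory-stage PubChem screen for compounds that inhibit SV40 T antigen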
[7] = molecular target: T2, Replicative DNA helicase DnaB (Mycobacterium tuberculosis, UniProt P9WMR3); assay: DnaB intein splicing inhibitors, dose response, biochemical, cell-free fluorescence (AID 449749); type: functional
T2 sequence (P9WMR3 whole entry): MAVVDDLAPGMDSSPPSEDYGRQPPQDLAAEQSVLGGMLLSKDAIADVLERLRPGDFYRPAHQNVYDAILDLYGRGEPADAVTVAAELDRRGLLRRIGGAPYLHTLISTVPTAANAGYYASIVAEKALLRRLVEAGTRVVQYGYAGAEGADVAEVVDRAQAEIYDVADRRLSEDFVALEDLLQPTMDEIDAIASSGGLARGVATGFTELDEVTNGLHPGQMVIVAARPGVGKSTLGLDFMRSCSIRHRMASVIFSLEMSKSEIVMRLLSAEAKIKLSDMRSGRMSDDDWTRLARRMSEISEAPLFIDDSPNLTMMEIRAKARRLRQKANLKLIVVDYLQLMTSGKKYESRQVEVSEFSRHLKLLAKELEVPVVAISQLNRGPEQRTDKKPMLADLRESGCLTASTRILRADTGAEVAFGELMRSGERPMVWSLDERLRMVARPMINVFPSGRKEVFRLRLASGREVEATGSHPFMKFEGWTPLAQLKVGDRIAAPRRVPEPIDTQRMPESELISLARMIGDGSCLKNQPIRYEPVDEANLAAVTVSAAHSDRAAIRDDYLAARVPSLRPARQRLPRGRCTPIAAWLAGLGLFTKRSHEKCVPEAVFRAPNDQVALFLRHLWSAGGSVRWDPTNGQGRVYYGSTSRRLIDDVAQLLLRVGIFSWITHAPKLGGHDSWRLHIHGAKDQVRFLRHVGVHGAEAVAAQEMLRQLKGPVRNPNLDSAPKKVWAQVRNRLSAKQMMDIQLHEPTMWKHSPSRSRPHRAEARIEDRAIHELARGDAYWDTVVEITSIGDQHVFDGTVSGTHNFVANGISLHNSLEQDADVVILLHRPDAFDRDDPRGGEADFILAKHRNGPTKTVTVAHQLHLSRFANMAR

Protein RecA = molecular target: T3, Protein RecA (Mycobacterium tuberculosis, UniProt P9WHJ3); assay: Fluorescence Cell-Free Homogeneous Dose Retest to Identify Inhibitors of RecA-Intein Splicing Activity. [Related pubchem assays (depositor defined):AID2097, AID2223, AID489010, AID492950]; type: functional
T3 sequence (P9WHJ3 whole entry): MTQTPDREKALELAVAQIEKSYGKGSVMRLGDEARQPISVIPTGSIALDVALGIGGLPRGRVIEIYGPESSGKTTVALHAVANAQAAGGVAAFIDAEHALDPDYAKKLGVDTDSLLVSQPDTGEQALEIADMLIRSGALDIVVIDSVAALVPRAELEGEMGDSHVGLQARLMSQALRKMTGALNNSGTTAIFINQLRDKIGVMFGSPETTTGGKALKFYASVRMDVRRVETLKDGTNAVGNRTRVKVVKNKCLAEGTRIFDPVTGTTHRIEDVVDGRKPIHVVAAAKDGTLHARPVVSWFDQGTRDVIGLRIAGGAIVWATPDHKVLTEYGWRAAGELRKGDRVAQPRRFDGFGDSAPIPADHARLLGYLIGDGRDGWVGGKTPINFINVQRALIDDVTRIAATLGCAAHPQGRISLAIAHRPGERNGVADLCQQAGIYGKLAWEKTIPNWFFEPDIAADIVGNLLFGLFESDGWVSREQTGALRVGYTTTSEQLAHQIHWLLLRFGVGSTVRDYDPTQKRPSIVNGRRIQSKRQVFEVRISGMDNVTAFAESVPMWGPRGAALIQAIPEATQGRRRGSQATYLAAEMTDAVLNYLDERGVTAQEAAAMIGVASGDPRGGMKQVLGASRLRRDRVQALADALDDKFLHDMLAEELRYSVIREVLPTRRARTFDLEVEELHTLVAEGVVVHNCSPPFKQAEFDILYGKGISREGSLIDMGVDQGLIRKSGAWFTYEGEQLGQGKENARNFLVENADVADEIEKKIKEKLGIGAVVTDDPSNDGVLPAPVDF

[8] = molecular target: T4, Polyadenylate-binding protein 1 (Homo sapiens, UniProt P11940); assay: PABP1 MLLE–PAM2 interaction inhibitors, dose response, miRNA deadenylation inhibitor project, biochemical, fluorescence polarization, Cy5-PAM2 peptide, secondary (AID 602260); type: functional; details: read-out: IC50_Mean
[9] = molecular target: T4, Polyadenylate-binding protein 1; assay: PABP1 MLLE–PAM2 binding inhibitor potency, dose response, biochemical, fluorescence polarization, FITC-PAM2 peptide (AID 602259); type: functional; details: read-out: IC50_Mean
[10] = molecular target: FAD-linked sulfhydryl oxidase ALR (Homo sapiens, UniProt P55789); assay: inhibitors of human ALR sulfhydryl oxidase, dose response, biochemical, H2O2 detection, luminescence, cherry-pick (AID 493248)
Leucine aminopeptidase = molecular target: T5, Leucine aminopeptidase (Plasmodium falciparum 3D7, UniProt Q8IL11); assay: P. falciparum M17LAP inhibitors, primary screen, biochemical, fluorogenic H-Leu-NHMec substrate, 1536-well (AID 1619); type: functional
T5 sequence (Q8IL11 whole entry): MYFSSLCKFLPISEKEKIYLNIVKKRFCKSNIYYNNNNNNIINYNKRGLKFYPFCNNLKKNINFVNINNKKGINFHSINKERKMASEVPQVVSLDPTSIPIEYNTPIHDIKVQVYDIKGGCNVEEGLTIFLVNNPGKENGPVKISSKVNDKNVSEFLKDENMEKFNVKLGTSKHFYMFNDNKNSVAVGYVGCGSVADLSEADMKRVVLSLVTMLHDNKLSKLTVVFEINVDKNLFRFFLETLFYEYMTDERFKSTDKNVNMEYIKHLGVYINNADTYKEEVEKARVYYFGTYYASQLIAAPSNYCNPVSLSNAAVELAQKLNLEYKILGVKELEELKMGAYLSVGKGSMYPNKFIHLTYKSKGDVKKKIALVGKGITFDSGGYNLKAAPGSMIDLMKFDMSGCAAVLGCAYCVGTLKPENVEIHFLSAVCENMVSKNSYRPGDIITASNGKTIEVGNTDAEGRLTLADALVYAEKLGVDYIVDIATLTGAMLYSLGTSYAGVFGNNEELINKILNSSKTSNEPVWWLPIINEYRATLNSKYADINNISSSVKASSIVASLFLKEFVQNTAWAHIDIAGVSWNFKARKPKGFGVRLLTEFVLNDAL

[11] = NIH-3T3 fibroblast cytotoxicity, dose response, cytotoxicity control, cell-based, fluorescence, Alamar Blue, secondary assay (AID 2327); type: functional;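 also: NIH-3T3 mouse fibroblasts cultured with fluconazole at 8 µg/mL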
[12] = C. albicans growth with fluconazole, confirmation, fluorescence, retest (AID 2467); type: functional, cell-based
[13] = molecular target: Glucose-6-phosphate 1-dehydrogenase (Homo sapiens, UniProt P11413); assay: human G6PD enzyme inhibitors, dose response, selectivity assay for P. falciparum G6PD inhibitor project, biochemical, fluorescence (AID 504792); type: functional
[14] = Luminescence Cell-Based Dose Confirmation HTS to Identify Activators of 5'UTR Stem-Loop Driven Alpha-Synuclein mRNA Translation in H4 Neuroglioblastoma Cells. [Related pubchem assays: 1829 (Project Summary), 1814 (Primary HTS)]; type: functional
[15] = Luminescence Cell-Based Dose Response HTS to Identify Activators of Luciferase Translation or Activity in H4 […] Cells. [Related pubchem assays: 1829 (Project Summary), 1814 (Primary HTS)]; type: functional
H4 = assay: Luminescence Cell-Based Dose Response HTS to Identify Activators of 5'UTR Stem-Loop Driven Prion Protein mRNA Translation in H4 Neuroglioblastoma Cells. [Related pubchem assays: 1829 (Project Summary), 1814 (Primary HTS)]; type: functional; details: Homo sapiens

Sequence of Cytochrome P450 2C9 (P11712 whole entry): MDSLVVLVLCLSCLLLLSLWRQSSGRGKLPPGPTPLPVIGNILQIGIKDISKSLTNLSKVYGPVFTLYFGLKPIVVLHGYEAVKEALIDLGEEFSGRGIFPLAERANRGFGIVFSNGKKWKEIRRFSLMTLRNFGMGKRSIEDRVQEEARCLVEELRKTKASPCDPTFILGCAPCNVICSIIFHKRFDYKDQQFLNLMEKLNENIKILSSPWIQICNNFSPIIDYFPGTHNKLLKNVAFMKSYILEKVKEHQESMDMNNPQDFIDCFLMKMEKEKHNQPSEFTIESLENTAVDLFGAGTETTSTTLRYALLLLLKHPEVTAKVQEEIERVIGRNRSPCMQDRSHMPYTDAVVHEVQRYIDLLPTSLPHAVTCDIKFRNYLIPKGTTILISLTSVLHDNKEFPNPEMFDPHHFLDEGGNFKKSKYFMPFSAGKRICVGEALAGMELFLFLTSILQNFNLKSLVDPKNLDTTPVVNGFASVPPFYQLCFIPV
T1 sequence (P49327 whole entry, the tested form may be a part): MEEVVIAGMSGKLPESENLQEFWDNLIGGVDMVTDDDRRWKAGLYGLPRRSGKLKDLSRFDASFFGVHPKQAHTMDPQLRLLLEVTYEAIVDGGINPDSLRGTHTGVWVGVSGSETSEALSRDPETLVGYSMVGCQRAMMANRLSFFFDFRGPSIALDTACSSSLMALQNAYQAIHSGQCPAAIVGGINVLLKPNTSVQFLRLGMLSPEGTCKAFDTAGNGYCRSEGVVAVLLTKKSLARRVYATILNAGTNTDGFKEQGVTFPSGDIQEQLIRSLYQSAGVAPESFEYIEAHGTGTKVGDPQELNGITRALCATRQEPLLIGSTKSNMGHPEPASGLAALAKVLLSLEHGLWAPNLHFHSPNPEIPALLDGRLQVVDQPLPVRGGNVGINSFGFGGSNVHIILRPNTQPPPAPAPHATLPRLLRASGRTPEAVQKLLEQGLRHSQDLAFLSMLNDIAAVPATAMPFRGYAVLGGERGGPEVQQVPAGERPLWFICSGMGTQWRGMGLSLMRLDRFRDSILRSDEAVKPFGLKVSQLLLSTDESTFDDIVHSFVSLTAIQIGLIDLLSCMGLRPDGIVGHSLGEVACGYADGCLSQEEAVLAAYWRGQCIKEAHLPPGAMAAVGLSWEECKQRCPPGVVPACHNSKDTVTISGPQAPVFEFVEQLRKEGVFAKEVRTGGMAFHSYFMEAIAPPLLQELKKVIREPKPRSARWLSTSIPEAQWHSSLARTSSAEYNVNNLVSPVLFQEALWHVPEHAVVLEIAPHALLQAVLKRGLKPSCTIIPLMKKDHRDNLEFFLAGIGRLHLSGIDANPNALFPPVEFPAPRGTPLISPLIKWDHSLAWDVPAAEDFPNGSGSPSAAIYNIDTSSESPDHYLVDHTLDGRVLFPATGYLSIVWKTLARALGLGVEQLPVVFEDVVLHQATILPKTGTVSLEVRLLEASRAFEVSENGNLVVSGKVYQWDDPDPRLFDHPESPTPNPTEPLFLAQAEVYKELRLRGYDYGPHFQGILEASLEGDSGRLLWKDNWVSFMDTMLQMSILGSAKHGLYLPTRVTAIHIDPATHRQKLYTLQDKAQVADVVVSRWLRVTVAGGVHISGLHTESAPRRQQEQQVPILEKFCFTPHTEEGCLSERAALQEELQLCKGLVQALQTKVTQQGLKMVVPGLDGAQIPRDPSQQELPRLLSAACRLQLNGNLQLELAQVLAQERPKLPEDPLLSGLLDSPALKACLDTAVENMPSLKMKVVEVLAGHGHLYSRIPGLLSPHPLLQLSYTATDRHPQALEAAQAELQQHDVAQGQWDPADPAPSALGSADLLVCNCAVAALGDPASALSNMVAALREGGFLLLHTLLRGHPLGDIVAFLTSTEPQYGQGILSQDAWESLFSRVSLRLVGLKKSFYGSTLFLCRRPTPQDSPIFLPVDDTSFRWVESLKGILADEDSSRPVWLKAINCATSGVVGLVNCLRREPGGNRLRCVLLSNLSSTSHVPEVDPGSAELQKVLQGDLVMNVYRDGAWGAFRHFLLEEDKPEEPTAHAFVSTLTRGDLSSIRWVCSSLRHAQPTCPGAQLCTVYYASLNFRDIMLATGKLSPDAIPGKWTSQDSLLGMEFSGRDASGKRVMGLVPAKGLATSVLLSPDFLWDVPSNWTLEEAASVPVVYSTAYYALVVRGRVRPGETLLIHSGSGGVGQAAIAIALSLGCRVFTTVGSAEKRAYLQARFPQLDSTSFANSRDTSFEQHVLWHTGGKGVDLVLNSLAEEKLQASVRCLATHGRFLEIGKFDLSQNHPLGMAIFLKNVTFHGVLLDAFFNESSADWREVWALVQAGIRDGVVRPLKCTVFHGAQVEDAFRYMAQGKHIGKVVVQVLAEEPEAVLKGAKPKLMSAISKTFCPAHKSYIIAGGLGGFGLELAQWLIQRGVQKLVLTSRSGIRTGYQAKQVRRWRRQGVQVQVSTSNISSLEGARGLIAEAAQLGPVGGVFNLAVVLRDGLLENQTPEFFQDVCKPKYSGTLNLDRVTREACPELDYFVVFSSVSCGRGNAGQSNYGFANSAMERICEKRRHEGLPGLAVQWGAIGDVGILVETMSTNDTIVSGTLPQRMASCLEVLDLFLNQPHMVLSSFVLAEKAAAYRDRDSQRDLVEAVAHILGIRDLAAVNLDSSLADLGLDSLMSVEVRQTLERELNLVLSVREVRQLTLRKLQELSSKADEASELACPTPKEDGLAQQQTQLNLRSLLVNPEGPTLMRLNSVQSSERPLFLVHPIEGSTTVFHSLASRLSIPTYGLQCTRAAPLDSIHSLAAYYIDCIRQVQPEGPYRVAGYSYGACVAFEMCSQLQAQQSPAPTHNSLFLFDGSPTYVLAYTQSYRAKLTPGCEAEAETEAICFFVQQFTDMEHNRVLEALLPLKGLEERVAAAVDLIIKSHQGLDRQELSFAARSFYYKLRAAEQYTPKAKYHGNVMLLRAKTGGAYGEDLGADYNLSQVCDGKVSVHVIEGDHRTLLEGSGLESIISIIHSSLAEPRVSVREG
Sequence of Large T antigen (P03070 whole entry): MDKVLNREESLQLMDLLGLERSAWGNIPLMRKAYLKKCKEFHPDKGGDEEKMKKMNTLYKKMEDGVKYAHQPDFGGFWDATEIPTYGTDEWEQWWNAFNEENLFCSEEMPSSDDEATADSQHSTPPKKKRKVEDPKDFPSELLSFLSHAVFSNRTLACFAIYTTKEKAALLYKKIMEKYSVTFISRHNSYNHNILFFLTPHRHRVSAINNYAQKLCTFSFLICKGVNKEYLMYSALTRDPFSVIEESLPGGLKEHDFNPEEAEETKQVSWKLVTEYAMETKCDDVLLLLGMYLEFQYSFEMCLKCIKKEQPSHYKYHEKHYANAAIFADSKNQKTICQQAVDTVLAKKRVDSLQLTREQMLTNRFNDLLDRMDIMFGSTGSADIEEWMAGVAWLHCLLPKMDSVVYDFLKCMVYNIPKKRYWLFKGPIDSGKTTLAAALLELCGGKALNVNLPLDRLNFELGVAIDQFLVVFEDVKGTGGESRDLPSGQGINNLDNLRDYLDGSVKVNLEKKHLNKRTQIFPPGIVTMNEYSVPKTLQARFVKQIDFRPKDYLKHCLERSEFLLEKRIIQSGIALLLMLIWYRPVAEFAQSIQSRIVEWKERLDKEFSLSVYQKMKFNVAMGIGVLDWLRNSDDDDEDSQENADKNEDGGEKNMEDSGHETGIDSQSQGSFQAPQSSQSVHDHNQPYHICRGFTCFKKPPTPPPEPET
T4 sequence (P11940 whole entry): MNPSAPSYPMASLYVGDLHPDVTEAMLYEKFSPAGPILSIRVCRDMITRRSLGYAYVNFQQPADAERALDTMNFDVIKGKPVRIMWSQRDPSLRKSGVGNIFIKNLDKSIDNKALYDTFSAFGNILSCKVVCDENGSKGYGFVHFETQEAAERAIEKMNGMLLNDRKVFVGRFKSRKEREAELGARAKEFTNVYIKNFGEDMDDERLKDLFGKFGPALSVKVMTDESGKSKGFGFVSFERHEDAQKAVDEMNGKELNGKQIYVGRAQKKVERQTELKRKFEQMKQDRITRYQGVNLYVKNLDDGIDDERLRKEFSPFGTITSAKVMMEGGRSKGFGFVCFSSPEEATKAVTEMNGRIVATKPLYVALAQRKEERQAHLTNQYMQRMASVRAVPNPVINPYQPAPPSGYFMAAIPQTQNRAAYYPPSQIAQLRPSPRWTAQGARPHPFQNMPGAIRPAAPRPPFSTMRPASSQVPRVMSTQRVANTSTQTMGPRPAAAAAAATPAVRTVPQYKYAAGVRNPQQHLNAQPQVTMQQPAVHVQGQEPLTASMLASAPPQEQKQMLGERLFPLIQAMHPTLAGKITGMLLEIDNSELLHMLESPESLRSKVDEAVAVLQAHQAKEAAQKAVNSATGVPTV
Sequence of Cytochrome P450 2D6 (P10635 whole entry): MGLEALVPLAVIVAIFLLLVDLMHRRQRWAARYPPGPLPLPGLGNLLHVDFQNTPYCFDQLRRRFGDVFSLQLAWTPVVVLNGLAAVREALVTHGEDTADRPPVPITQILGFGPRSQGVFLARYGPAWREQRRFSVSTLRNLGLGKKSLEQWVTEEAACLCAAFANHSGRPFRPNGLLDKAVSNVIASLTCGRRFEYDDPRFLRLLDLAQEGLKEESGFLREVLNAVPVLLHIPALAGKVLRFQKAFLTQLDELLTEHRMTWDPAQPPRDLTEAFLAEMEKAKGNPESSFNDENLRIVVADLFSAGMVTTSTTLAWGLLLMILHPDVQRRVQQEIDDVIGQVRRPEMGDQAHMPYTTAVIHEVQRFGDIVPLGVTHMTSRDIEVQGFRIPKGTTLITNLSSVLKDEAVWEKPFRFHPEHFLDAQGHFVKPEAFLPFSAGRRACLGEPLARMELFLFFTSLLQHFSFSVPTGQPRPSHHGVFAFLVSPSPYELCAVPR
Sequence of FAD-linked sulfhydryl oxidase ALR (P55789 whole entry): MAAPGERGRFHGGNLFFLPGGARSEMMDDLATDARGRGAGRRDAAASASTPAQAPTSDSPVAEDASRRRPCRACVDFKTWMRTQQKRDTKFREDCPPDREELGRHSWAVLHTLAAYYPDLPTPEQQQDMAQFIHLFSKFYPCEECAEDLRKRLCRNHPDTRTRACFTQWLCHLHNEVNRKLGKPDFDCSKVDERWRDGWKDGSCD

O=c1oc(-c2ccccc2Br)nc2ccccc12
IC50 (Fatty acid synthase [1]): 16.1 µM (active) | IC50 (Fatty acid synthase [2]): 13 µM (active)

COc1ccc(/C=C/C(=O)Nc2nc(C)cc(C)n2)cc1OC
AC50 (Cytochrome P450 2C9): inconclusive

C[C@@]12C(=O)Nc3cc(F)c(F)cc3C(=O)N1[C@H]1c3ccccc3OC[C@@H]1[C@@H]2c1ccccc1
IC50 (Fatty acid synthase [1]): 16.9 µM (active) | IC50 (Fatty acid synthase [2]): 8.59 µM (active)

Cc1cc(=O)oc2cc(O)ccc12 [HYMECROMONE]
AC50 (Cytochrome P450 2C9): inconclusive

CC1Cc2ccccc2N1Cc1cccc(S(=O)(=O)N(C)C)c1 (configuration not stated)
AC50 [3]: 33 µM (active) | AC50 [4]: 23.9 µM (active)

CNc1ncnc(Sc2ccc(Cl)cc2)c1[N+](=O)[O-]
EC50 [5]: 3.2 µM (active) | EC50 [6]: > 60 µM (not active) | CC50 (Vero): > 25 µM (active)

CCCCOc1ccc(CN2CCC(O)CC2)cc1
AC50 (Cytochrome P450 2D6): 0.2 µM (inconclusive) | AC50 (Cytochrome P450 2C9): inconclusive

COc1cc(C(=O)N/N=C(\C)Cn2nc([N+](=O)[O-])cc2C)ccc1O
IC50 (Large T antigen): 29.3 µM (active)

COc1cccc(CNc2ccc3[nH]c(O)nc3c2)c1OCc1ccccc1
IC50 (Large T antigen): 16.5 µM (active)

O=C(/C=C/c1cccc([N+](=O)[O-])c1)NCCSCc1c(Cl)cccc1Cl
IC50 (Fatty acid synthase [1]): 4.12 µM (active) | IC50 (Fatty acid synthase [2]): 3.92 µM (active)

CCCCOC(=O)CNc1nnc(SCC(=O)OCC)nc1O
AC50 [7]: 2.66 µM (active) | EC50 (Protein RecA): 4.56 µM (active) | IC50 [8]: > 66 µM (inactive) | IC50 [9]: > 66 µM (inactive) | IC50 (Fatty acid synthase [1]): 7.5 µM (active) | IC50 (Fatty acid synthase [2]): 9.16 µM (active)

Cn1c(=O)oc2cc(S(=O)(=O)Nc3ccc(O)cc3)ccc21
IC50 (Large T antigen): 4.64 µM (active) | AC50 [10]: 1.49 µM (active)

Cc1ccc(SC(C)C(=O)Nc2ccc(S(=O)(=O)N3CCOCC3)cc2)cc1 (configuration not stated)
IC50 (Leucine aminopeptidase): 21.2 µM (active)

CCCCN(C(=O)/C=C/c1ccco1)c1c(N)n(Cc2ccccc2)c(=O)[nH]c1=O
EC50 [11]: > 150 µM (inactive) | EC50 [12]: > 38 µM (not active)

O=[N+]([O-])c1cc(CS(=O)(=O)Oc2ccc(Cl)cc2)c(O)c([N+](=O)[O-])c1
IC50 (Fatty acid synthase [1]): 16.1 µM (active) | IC50 (Fatty acid synthase [2]): 41.7 µM (inactive)

O=C(Cc1ccccc1)N/N=C/c1ccccc1Cl
EC50 [11]: > 150 µM (inconclusive) | EC50 [12]: > 38 µM (not active)

OCCNc1nc(O)nc(O)c1/N=C/c1ccccc1
IC50 [13]: 14.2 µM (active)

Cc1c(O)c(S(=O)(=O)c2ccccc2)c(=O)n(-c2ccccc2)c1-c1ccccc1
IC50 (Leucine aminopeptidase): 9.98 µM (active)

Cc1ccc(C2=NNC3(CCOC(C)(C)C3)S2)cc1 (configuration not stated)
EC50 [11]: > 160 µM (inactive) | EC50 [14]: 14 µM (active) | EC50 [15]: 30.5 µM (active) | EC50 (H4): 19.1 µM (active) | EC50 [12]: > 38 µM (not active)

Cc1nn(-c2ccccc2)c(S)c1/C=N/c1ccc([N+](=O)[O-])cc1
IC50 (Large T antigen): 25.7 µM (active)

COc1cc(C2C3=C(COC3=O)Oc3cc4c(cc32)OCO4)cc(OC)c1OC (configuration not stated)
CC50 (Vero): < 0.05 µM (active)

Cc1ccc(-c2nnc(NC(=O)c3ccc([N+](=O)[O-])o3)o2)c(C)c1
EC50 [11]: > 160 µM (inconclusive) | EC50 [12]: 1.85 µM (active)

COc1ccc(CCNC(=O)c2ccc3c(SCC(=O)O)c4c(nc3c2)CCCC4)cc1OC
IC50 (Leucine aminopeptidase): 23.3 µM (active)

COc1cccc(N2C(=O)NC(=O)/C(=C\NCCN3CCOCC3)C2=O)c1
AC50 (Cytochrome P450 2C9): inconclusive

COc1ccc(CNc2cc(-c3cccc(NS(C)(=O)=O)c3)ncn2)c(OC)c1
AC50 (Cytochrome P450 2D6): 39.8 µM (inconclusive) | AC50 (Cytochrome P450 2C9): inconclusive

Cc1cccc(-c2nc3ccccc3c(=O)n2NC(=O)/C=C/c2ccc([N+](=O)[O-])cc2)c1
EC50 [11]: > 150 µM (inactive) | EC50 [12]: 0.101 µM (active)

O=C(COc1cccc2ccccc12)NNC(=O)c1cccs1
AC50 (Cytochrome P450 2C9): inconclusive

CCOC(=O)c1c(NC(=O)COC(=O)c2ccc(S(=O)(=O)C(F)F)cc2)sc(C(=O)N(C)C)c1C
CC50 (Vero): > 25 µM (active)

CC(=O)c1cccc(-c2ccnc3c2CC(C(=O)Nc2ccc(F)c(Cl)c2)O3)c1 (configuration not stated)
IC50 (Fatty acid synthase [1]): 7.72 µM (active) | IC50 (Fatty acid synthase [2]): 7.91 µM (active)

CCOC(=O)CSc1nnc(-c2ccco2)n1-c1ccc(C)cc1
IC50 (Leucine aminopeptidase): 37 µM (active)

CC(C)Sc1nnc(NC(=O)c2ccc3c(c2)OCO3)s1
IC50 [13]: 38.9 µM (inactive)

COc1cc(/C=C2\C(=O)NN(c3ccccc3)C2=O)ccc1OCC(N)=O
IC50 (Large T antigen): > 100 µM (active)

O=C(CSc1nc[nH]n1)Nc1ccccc1C(=O)O
IC50 (Leucine aminopeptidase): 35.6 µM (active)
